Data published in PubChem BioAssay (NCI).
Several values for one entry are separate records, joined by “and”; a condition that tells them apart may be missing. Equal values may be shown once.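 Step 1: Grow cells in 96-well plates. Step 2: Expose to compound for 48 hours at 5 concentrations. Step 3: Interpolate endpoints linearly; if unreached, use highest concentration. GI50 marks 50% less growth. Definition used: TGI = concentration required for complete inhibition of growth.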

Legend:
Assay in all cases: NCI-60 cell line screen, 48 h
SK-MEL-5 melanoma = test system: SK-MEL-5 melanoma
OVCAR-8 ovarian = test system: OVCAR-8 ovarian
SR leukemia = test system: SR leukemia
DU-145 prostate = test system: DU-145 prostate
SF-268 CNS = test system: SF-268 CNS
NCI-H23 lung = test system: NCI-H23 lung
RXF 393 renal = test system: RXF 393 renal
OVCAR-5 ovarian = test system: OVCAR-5 ovarian
HCT-15 colon = test system: HCT-15 colon
SF-295 CNS = test system: SF-295 CNS

Row | Structure (SMILES) | TGI (SK-MEL-5 melanoma) | TGI (OVCAR-8 ovarian) | TGI (SR leukemia) | GI50 (DU-145 prostate) | TGI (DU-145 prostate) | TGI (SF-268 CNS) | GI50 (NCI-H23 lung) | TGI (NCI-H23 lung) | GI50 (RXF 393 renal) | TGI (RXF 393 renal) | GI50 (OVCAR-5 ovarian) | TGI (OVCAR-5 ovarian) | GI50 (HCT-15 colon) | TGI (HCT-15 colon) | GI50 (SF-295 CNS) | TGI (SF-295 CNS) | GI50 (SK-MEL-5 melanoma) | GI50 (OVCAR-8 ovarian) | GI50 (SR leukemia) | GI50 (SF-268 CNS)
1 | Cc1c(O)c2c(c(O)c1Br)C(=O)C=CC2=O | 0.974 µM and 1.78 µM | 2.74 µM | 0.73 µM | 1.82 µM | 2.85 µM and 3.24 µM | 4.63 µM and 6.51 µM | 1.48 µM | 2.09 µM and 3.28 µM | 0.229 µM | 2.72 µM and 0.582 µM | 1.95 µM | 3.19 µM and 3.92 µM | 0.451 µM | 1.14 µM and 1.94 µM | 14 µM | 3.15 µM and 28.2 µM |  |  |  | 
2 | COc1ccc(C2=NN(C(=O)c3cc(OC)c(OC)c(OC)c3)C(c3ccc(N(C)C)cc3)C2)cc1 (centres undefined) | 4.88 µM | > 100 µM |  | 1.74 µM | > 23.7 µM | > 100 µM | 1 µM | > 100 µM | 0.252 µM | 0.723 µM | 0.732 µM | > 100 µM | 0.426 µM | > 100 µM | 0.339 µM | 40.4 µM | 0.424 µM | 2.42 µM | 0.426 µM | 0.736 µM
3 | CCCCCCCCCCCCCCCCC(=O)O.CCCCCCCCCCCCCCCCCC(=O)O.CCCCCCCCCCCCCCCCCC(=O)O.CCCCCCCCCCCCCCCCCC(=O)O.CCCCCCCCCCCCCCCCCC(=O)O.CO[CH-]OC12COC1CC(O)C1(C)C(O)C(OC(C)O)C3=C(C)C(OC(=O)C(O)C([NH-])c4ccccc4)CC(O)(C(OC(=O)c4ccccc4)C21)C3(C)C.[Cu+].[Zn].[Zn].[Zn].[Zn].[Zn] (centres undefined) | 3.57 µM | > 25 µM | 11.5 µM | 0.00871 µM | 1.63 µM | 6.25 µM | 0.0115 µM | > 14.5 µM |  | 0.21 µM | 0.0113 µM | 4.22 µM | 0.222 µM | > 25 µM | 0.0102 µM | 2.9 µM |  | 0.0102 µM | 0.00414 µM | 
4 | O=C(c1ccco1)c1c(C(F)(F)F)n([O-])c2ccc(Cl)cc2[n+]1=O | 1.64 µM | 2.1 µM | 0.574 µM | 0.341 µM | 1.44 µM | 3.18 µM | 0.82 µM | 2.55 µM | 1.38 µM | 3.83 µM | 1.47 µM | 2.86 µM | 0.372 µM | 1.72 µM | 1.79 µM | 7.05 µM | 0.538 µM | 0.799 µM | 0.204 µM | 1.61 µM
5 | C[C@@H](Oc1ccc(C(=O)NS(=O)(=O)C(C)(C)C)cc1C(F)(F)F)c1ccc(Oc2ccccc2)cn1 | 4.75 µM | 12.4 µM | 13.7 µM | 3.82 µM | 14.3 µM | 17.8 µM | 5.14 µM | 23.3 µM | 2.25 µM | 8.95 µM | 3.46 µM | 14 µM | 2.53 µM | 10.5 µM | 2.21 µM | 6.89 µM | 1.68 µM | 3.27 µM | 1.29 µM | 3.54 µM
6 | COc1cc(C(=O)N/N=C/c2ccc(N(C)C)cc2)cc(OC)c1OC | 1.16 µM | > 100 µM |  | 0.415 µM | 2.79 µM | > 100 µM | 0.588 µM | > 100 µM | 0.234 µM |  | 3.29 µM | > 100 µM | 0.447 µM | > 100 µM | 0.288 µM |  | 0.198 µM | 0.599 µM | 0.287 µM | 1.12 µM
7 | CN(Cc1cc(Cl)cc(Cl)c1O)Cc1c(O)ccc2ccccc12 | 32 µM | 39.2 µM | 68.2 µM |  | 46.2 µM | 28.2 µM |  | 33.5 µM |  | 33.6 µM |  | 52.5 µM |  | 38.9 µM |  | 36.1 µM |  |  |  | 
8 | COc1cc(-c2cc(-c3cc(OC)c(OC)c(OC)c3)nc3nc(N)[nH]c(=O)c23)ccc1Oc1ccnc2cc(Cl)ccc12 | 13.3 µM | 79.5 µM | 29.6 µM | 3.51 µM | > 100 µM | > 100 µM | 3.43 µM | 24.9 µM | 2.81 µM | 9.35 µM | 4.76 µM | > 100 µM | 0.457 µM | 24.4 µM | 4.52 µM | 85.5 µM | 2.93 µM | 3.17 µM | 0.468 µM | 3.43 µM
9 | COc1ccc(C2C=C(c3ccc4c(c3)OCO4)Oc3c2c(=O)oc2ccccc32)cc1OC (centres undefined) | > 100 µM | > 100 µM | 0.594 µM |  | > 100 µM | > 100 µM |  | > 46.2 µM |  | > 45.5 µM |  | > 100 µM |  | > 100 µM |  | > 100 µM |  |  |  | 
10 | CC(=O)OC12COC1CC(O)C1(C)C(=O)C(O)C3=C(C)C(O)CC(O)(C(OC(=O)c4ccccc4)C21)C3(C)C (centres undefined) | 29.5 µM | > 100 µM | > 100 µM |  | > 100 µM | > 100 µM |  | > 100 µM |  | > 100 µM |  | > 42.2 µM |  | > 100 µM |  | > 100 µM |  |  |  | 
11 | CCN(CC)C1CCC(Nc2c(C(C)=O)cnc3ccc(-c4ccc(O)c(Cl)c4)cc23)CC1 (centres undefined) | 4.55 µM | 14 µM | 0.72 µM | 0.875 µM | > 35.5 µM | 12.2 µM | 0.474 µM | 3.1 µM | 0.615 µM | 2.28 µM | 2.4 µM | > 96.3 µM | 0.301 µM | 9.62 µM | 4.46 µM | 24.9 µM | 0.782 µM | 0.818 µM | 0.195 µM | 0.487 µM
12 | Cn1c(=O)c(Oc2ccc(F)cc2F)cc2cnc(NC3CCS(=O)(=O)CC3)nc21 | > 25 µM | > 25 µM | > 25 µM | > 25 µM | > 25 µM | > 25 µM | > 25 µM | > 25 µM | > 25 µM | > 25 µM | > 25 µM | > 25 µM | > 25 µM | > 25 µM | > 12.4 µM | > 25 µM | > 25 µM | > 25 µM | > 25 µM | > 18.9 µM
13 | Clc1ccc(-c2cc(-c3ccccc3)nc(NCCNc3ccnc4cc(Cl)ccc34)n2)cc1 | 3.2 µM | 4.1 µM | 4.56 µM | 1.82 µM | 3.31 µM | 3.8 µM | 1.76 µM | 3.6 µM | 1.19 µM | 2.8 µM | 1.67 µM | 3.06 µM | 1.63 µM | 3.25 µM | 1.8 µM | 3.52 µM | 1.74 µM | 1.91 µM | 1.59 µM | 1.81 µM
